Tests used:
[1] = molecular target: T1, Norepinephrine transporter (Rattus norvegicus, UniProt Q9WTR4); assay: Inhibition of rat brain Norepinephrine transporter as accumulation of [3H]-NE; type: functional
[2] = molecular target: Monoamine transporters; Norepinephrine & serotonin (Rattus norvegicus) (UniProt P31652+Q9WTR4); assay: Ratio between Serotonin transporter and Norepinephrine transporter uptake; type: protein assay
[3] = molecular target: Monoamine transporters; serotonin & dopamine (Rattus norvegicus) (UniProt P31652+P23977); assay: Ratio between Dopamine transporter and Serotonin transporter uptake; type: protein assay
Monoamine transporters; serotonin & dopamine (Rattus norvegicus), sequence (P23977 whole entry, looked up): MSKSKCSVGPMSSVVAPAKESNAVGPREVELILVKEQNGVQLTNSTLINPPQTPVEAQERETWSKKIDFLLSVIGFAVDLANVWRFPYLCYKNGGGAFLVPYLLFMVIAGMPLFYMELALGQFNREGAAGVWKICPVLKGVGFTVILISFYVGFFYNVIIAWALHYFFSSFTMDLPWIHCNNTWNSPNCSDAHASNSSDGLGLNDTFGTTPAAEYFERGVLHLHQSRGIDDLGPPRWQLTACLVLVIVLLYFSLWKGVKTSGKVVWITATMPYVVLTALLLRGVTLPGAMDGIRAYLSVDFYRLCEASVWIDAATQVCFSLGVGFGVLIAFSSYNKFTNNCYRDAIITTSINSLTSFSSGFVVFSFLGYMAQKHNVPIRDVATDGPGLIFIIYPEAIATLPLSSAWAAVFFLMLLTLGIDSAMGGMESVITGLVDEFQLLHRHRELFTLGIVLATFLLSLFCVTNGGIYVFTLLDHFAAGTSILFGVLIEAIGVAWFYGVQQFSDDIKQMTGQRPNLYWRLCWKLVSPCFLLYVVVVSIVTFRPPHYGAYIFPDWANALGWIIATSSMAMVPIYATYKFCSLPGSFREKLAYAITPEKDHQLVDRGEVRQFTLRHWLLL
Monoamine transporters; serotonin & dopamine (Rattus norvegicus), sequence (P31652 whole entry, looked up): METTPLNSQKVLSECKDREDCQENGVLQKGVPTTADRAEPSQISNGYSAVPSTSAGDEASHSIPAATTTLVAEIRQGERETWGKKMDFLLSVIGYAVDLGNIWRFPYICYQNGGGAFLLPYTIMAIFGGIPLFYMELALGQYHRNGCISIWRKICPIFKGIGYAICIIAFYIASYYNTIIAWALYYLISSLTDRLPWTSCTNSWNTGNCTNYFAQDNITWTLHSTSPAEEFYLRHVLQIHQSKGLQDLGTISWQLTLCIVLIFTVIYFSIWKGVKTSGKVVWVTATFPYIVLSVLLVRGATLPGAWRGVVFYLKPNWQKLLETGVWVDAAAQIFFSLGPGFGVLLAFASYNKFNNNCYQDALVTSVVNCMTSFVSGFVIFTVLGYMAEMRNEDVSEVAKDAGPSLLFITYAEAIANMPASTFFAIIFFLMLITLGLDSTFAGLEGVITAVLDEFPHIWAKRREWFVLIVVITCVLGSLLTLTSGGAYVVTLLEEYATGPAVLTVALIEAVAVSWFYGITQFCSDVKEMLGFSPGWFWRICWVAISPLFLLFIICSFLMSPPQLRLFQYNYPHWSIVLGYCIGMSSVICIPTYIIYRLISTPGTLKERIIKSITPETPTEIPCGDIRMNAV

[4] = molecular target: T2, Sodium-dependent dopamine transporter (Rattus norvegicus, UniProt P23977); assay: Inhibition of rat brain Dopamine transporter uptake as [3H]DA accumulation; type: functional
T2 sequence (P23977 whole entry): as the sequence (P23977 whole entry, looked up) above

[5] = molecular target: T3, Sodium-dependent serotonin transporter (Rattus norvegicus, UniProt P31652); assay: Inhibition of rat brain Serotonin transporter as accumulation of [3H]5-HT; type: functional
T3 sequence (P31652 whole entry): as the sequence (P31652 whole entry, looked up) above

[6] = molecular target: T1, Norepinephrine transporter; assay: Inhibition of rat brain Norepinephrine transporter as accumulation of [3H]NE; type: functional
[7] = molecular target: T2, Sodium-dependent dopamine transporter; assay: Inhibition of rat brain dopamine transporter as accumulation of [3H]DA; type: functional
[8] = molecular target: Monoamine transporters; Norepininephrine & dopamine (Rattus norvegicus) (UniProt P23977+Q9WTR4); assay: Ratio between Dopamine transporter and Norepinephrine transporter uptake; type: protein assay
[9] = molecular target: T2, Sodium-dependent dopamine transporter; assay: Inhibition of [3H]WIN-35428 binding to rat brain dopamine transporter
[10] = molecular target: T3, Sodium-dependent serotonin transporter; assay: Inhibition of rat brain Serotonin transporter uptake as [3H]5-HT accumulation

T1 sequence (Q9WTR4 whole entry): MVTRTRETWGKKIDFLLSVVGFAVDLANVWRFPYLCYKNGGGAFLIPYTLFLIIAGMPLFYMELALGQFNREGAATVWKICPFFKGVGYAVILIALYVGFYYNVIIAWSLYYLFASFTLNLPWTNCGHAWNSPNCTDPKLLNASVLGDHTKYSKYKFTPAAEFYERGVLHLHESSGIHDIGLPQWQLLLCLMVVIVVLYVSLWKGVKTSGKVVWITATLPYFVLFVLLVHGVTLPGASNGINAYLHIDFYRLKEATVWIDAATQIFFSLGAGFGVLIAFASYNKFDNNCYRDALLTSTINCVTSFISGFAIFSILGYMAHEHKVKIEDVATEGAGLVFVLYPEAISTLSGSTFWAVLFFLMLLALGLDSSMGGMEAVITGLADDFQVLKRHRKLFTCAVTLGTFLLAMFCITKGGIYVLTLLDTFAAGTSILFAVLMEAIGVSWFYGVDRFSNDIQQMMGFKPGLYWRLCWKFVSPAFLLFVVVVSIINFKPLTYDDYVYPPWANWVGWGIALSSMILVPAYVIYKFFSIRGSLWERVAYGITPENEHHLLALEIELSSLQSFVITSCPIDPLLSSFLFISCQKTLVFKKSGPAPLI

Ki [1] [nM]	Ratio [2]	Ratio [3]	IC50 [4] [nM]	Ki [5] [nM]	IC50 [6] [nM]	Ki [7] [nM]	Ratio [8]	IC50 [9] [nM]	IC50 [10] [nM]	SMILES
412										COc1ccc(CNC2COC(C(c3ccccc3)c3ccccc3)CC2O)cc1 (single isomer, unassigned)
15.8										COc1ccc(CN[C@@H]2CO[C@H](C(c3ccccc3)c3ccccc3)C[C@H]2O)cc1
			341	5500		253		596	6120	OC1CC(C(c2ccccc2)c2ccccc2)OCC1NCc1ccccc1 (single isomer, unassigned)
686	1.2	0.77	822	793	765	611	0.89	771	1070	COc1ccc(CN[C@@H]2C[C@@H](C(c3ccccc3)c3ccccc3)OC[C@H]2O)cc1
95	0.22	25	710	20.8	115	528	5.6	1060	24	COc1ccc(CN[C@@H]2CO[C@H](C(c3ccccc3)c3ccccc3)C[C@H]2O)c(OC)c1
			600	707		446			862	O[C@@H]1C[C@@H](C(c2ccccc2)c2ccccc2)OC[C@H]1NCc1ccccc1
1700	2	0.58	2670	3420	1840	1980	1.2	3750	3810	COc1ccc(CNC2CC(C(c3ccccc3)c3ccccc3)OCC2O)cc1 (single isomer, unassigned)

More lines, now with the values behind:

SMILES	Ki [1] [nM]	Ratio [2]	Ratio [3]	IC50 [4] [nM]	Ki [5] [nM]	IC50 [6] [nM]	Ki [7] [nM]	Ratio [8]	IC50 [9] [nM]	IC50 [10] [nM]
COc1cc(CN[C@@H]2CO[C@H](C(c3ccccc3)c3ccccc3)C[C@H]2O)cc(OC)c1	101	0.2	5.1	135	19.7	108	100	0.99	298	25.4
O[C@@H]1CO[C@H](C(c2ccccc2)c2ccccc2)C[C@H]1NCc1ccccc1	296	32	0.2	2610	9560	336	1940	6.6	4640	10600
O[C@@H]1C[C@@H](C(c2ccccc2)c2ccccc2)OC[C@H]1NCc1ccc(F)cc1	12.2	50	0.21	169	607	13.3	125	10.2	308	676
OC1COC(C(c2ccccc2)c2ccccc2)CC1NCc1ccccc1 (single isomer, unassigned)	2890	1.4	0.18	962	3970	3220	716	0.25	1250	4420
OC1CC(C(c2ccccc2)c2ccccc2)OCC1NCc1ccc(F)cc1 (single isomer, unassigned)	1050	4.8	0.065	440	5000	1130	327	0.31	1030	5560
OC1CC(C(c2ccccc2)c2ccccc2)OCC1NCCc1ccc(F)cc1 (single isomer, unassigned)	71	37	0.061	218	2650	77.3	162	2.3	443	2950
O[C@@H]1C[C@@H](C(c2ccccc2)c2ccccc2)OC[C@H]1NCCc1ccc(F)cc1	406	7.9	0.099	427	3210	439	317	0.78	1050	3570

From ChEMBL document CHEMBL1140340 (J Med Chem, 2005)
